From US5821353A, “DNA encoding 1,3 beta-D glucan synthase subunits” (Merck & Co., Inc., priority 1996, dated 1998)

Tests used:
[1] = test system: 1,3-beta-D glucan synthase from MY2144 (fks 1-3); assay: 1,3-beta-D glucan synthase assay, membrane preparation; format: biochemical, Saccharomyces cerevisiae; details: membranes of MY2144 (fks 1-3)
Protocol: (§1) Cell free extracts were prepared from mutant and wild type cells grown to logarithmic phase as previously described (Kang and Cabib, PNAS, 83:5808-5812, 1986). After homogenization with glass beads, the unbroken cells and debris were removed by a low speed centrifugation (1,000×gfor 5 min). The supernatant fluids were centrifuged at 100,000×g for 60 min and the pellets were washed with 2.5 ml (per gram of wet cells) of buffer containing 0.05M potassium phosphate (pH 7.5), 0.5 mM DTT, and 1.0 mM PMSF. The washed pellet was resuspended in the same buffer containing 5% glycerol. This served as the microsomal membranes source containing both chitin and glucan synthase enzymatic activities. The standard 1,3-beta-D glucan synthase reaction was initiated by mixing 35 mcg protein in cocktail I, which included TEK buffer (125 mM Tris chloride, pH 7.5, 31 mM KF, and 1 mM EDTA), 25% PBS, pH 7.0, 3.31 mcM GTP-gamma-S, and 0.25% BSA in a total volume of 69 mcL, with cocktail II, which included 4 units alpha-amylase, 25 mcg UDP-glucose, and 1 microCi UDP-^3 H-glucose, in a total volume of 11 mcL. Following 150 minutes of incubation at 30° C., the incorporation of UDP-^[…] into glucan was measured after precipitation with trichloroacetic acid.
(§2) Crude enzyme preparations associated with cell membranes were tested for glucan and chitin synthesis activities. […]

[2] = test system: 1,3-beta-D glucan synthase from MY2145 (fks 1-4); assay: as above; format: biochemical, Saccharomyces cerevisiae; details: membranes of MY2145 (fks 1-4)
Protocol: as §1, §2

## dihydropapulacandin [L-687,781]
[1]
  IC50: 11.1 µg/mL
[2]
  IC50: 11.5 µg/mL
